Assay results from PubChem BioAssay (NCI).
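Growth conditions: 96-well plates. Treatment: test compound, 48 hours, 5 concentrations. Analysis: linear interpolation between bracketing concentrations; unreached endpoints set to highest concentration. GI50 marks 50% less growth. The concentration for full growth arrest is given as TGI.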

What was measured:
Assay in all cases: NCI tumour cell line growth inhibition, 48 h
SK-OV-3 ovarian = system: SK-OV-3 ovarian
LOX IMVI melanoma = system: LOX IMVI melanoma
NCI-H522 lung = system: NCI-H522 lung
PC-3 prostate = system: PC-3 prostate
CCRF-CEM leukemia = system: CCRF-CEM leukemia
K-562 leukemia = system: K-562 leukemia
SNB-19 CNS = system: SNB-19 CNS
HT29 colon = system: HT29 colon
MDA-MB-435 = system: MDA-MB-435
HCC-2998 colon = system: HCC-2998 colon

SMILES: CCN(CC)CCCC(C)Nc1cc(-c2cccc(OC(F)(F)F)c2)nc2ccc(N3CCCC3)cc12 (stereo not drawn)
- GI50 (SK-OV-3 ovarian): 0.0779 µM
- TGI (SK-OV-3 ovarian): 98.7 µM
- GI50 (LOX IMVI melanoma): 0.0638 µM
- TGI (LOX IMVI melanoma): 14.6 µM
- GI50 (NCI-H522 lung): 0.0249 µM
- TGI (NCI-H522 lung): 0.5 µM
- GI50 (PC-3 prostate): 0.28 µM
- TGI (PC-3 prostate): > 49.5 µM
- GI50 (CCRF-CEM leukemia): 0.0564 µM
- TGI (CCRF-CEM leukemia): > 100 µM
- GI50 (K-562 leukemia): 0.0391 µM
- TGI (K-562 leukemia): > 100 µM
- GI50 (SNB-19 CNS): 0.118 µM
- TGI (SNB-19 CNS): > 100 µM
- GI50 (HT29 colon): 0.0394 µM
- TGI (HT29 colon): 11.2 µM
- GI50 (MDA-MB-435): 0.0223 µM
- TGI (MDA-MB-435): 0.0519 µM
- GI50 (HCC-2998 colon): 0.224 µM
- TGI (HCC-2998 colon): 2.98 µM

SMILES: CC(C)OC(=S)Nc1ccc(Cl)c(/C=N/OC(C)(C)C)c1
- TGI (SK-OV-3 ovarian): 41.6 µM
- TGI (LOX IMVI melanoma): 34.3 µM
- TGI (NCI-H522 lung): 30.8 µM
- TGI (PC-3 prostate): 38.1 µM
- TGI (CCRF-CEM leukemia): 36.8 µM
- TGI (K-562 leukemia): 43 µM
- TGI (SNB-19 CNS): 44.2 µM
- TGI (HT29 colon): 28.6 µM
- TGI (MDA-MB-435): 32.3 µM
- TGI (HCC-2998 colon): 41.4 µM

SMILES: O=C1/C(=C/c2ccc(F)cc2)CN(C(=O)CCN2CCC(=NO)CC2)C/C1=C\c1ccc(F)cc1
- GI50 (SK-OV-3 ovarian): 5.22 µM
- TGI (SK-OV-3 ovarian): 11.5 µM
- GI50 (LOX IMVI melanoma): 0.409 µM
- TGI (LOX IMVI melanoma): 0.922 µM
- GI50 (NCI-H522 lung): 1.24 µM
- TGI (NCI-H522 lung): 3.53 µM
- GI50 (PC-3 prostate): 0.855 µM
- TGI (PC-3 prostate): 2.97 µM
- GI50 (CCRF-CEM leukemia): 0.514 µM
- TGI (CCRF-CEM leukemia): > 57.6 µM
- GI50 (K-562 leukemia): 0.408 µM
- TGI (K-562 leukemia): > 49.7 µM
- GI50 (SNB-19 CNS): 1.53 µM
- TGI (SNB-19 CNS): 4.1 µM
- GI50 (HT29 colon): 0.845 µM
- TGI (HT29 colon): 2.61 µM
- GI50 (MDA-MB-435): 0.827 µM
- TGI (MDA-MB-435): 2.72 µM
- GI50 (HCC-2998 colon): 1.5 µM
- TGI (HCC-2998 colon): 3.08 µM

SMILES: O=C(Nc1ccccc1I(=O)=O)C1CCCCC1
- GI50 (SK-OV-3 ovarian): > 100 µM
- TGI (SK-OV-3 ovarian): > 100 µM
- GI50 (LOX IMVI melanoma): > 100 µM
- TGI (LOX IMVI melanoma): > 100 µM
- GI50 (NCI-H522 lung): > 100 µM
- TGI (NCI-H522 lung): > 100 µM
- GI50 (PC-3 prostate): > 100 µM
- TGI (PC-3 prostate): > 100 µM
- GI50 (CCRF-CEM leukemia): > 100 µM
- TGI (CCRF-CEM leukemia): > 100 µM
- GI50 (K-562 leukemia): 56.8 µM
- TGI (K-562 leukemia): > 100 µM
- GI50 (SNB-19 CNS): > 100 µM
- TGI (SNB-19 CNS): > 100 µM
- GI50 (HT29 colon): > 100 µM
- TGI (HT29 colon): > 100 µM
- GI50 (MDA-MB-435): > 100 µM
- TGI (MDA-MB-435): > 100 µM
- GI50 (HCC-2998 colon): > 100 µM
- TGI (HCC-2998 colon): > 100 µM

SMILES: C#Cc1cccc(Nc2nc(Cl)nc3cc(NC(=O)CCl)ccc23)c1
- GI50 (SK-OV-3 ovarian): 2.88 µM
- TGI (SK-OV-3 ovarian): 6.1 µM
- GI50 (LOX IMVI melanoma): 0.41 µM
- TGI (LOX IMVI melanoma): 0.809 µM
- GI50 (NCI-H522 lung): 0.465 µM
- TGI (NCI-H522 lung): 0.897 µM
- GI50 (PC-3 prostate): 1.05 µM
- TGI (PC-3 prostate): 4.71 µM
- GI50 (CCRF-CEM leukemia): 0.588 µM
- TGI (CCRF-CEM leukemia): 2.47 µM
- GI50 (K-562 leukemia): 0.792 µM
- TGI (K-562 leukemia): 3.03 µM
- GI50 (SNB-19 CNS): 1.68 µM
- TGI (SNB-19 CNS): 4.59 µM
- GI50 (HT29 colon): 0.766 µM
- TGI (HT29 colon): 4.43 µM
- GI50 (MDA-MB-435): 1.04 µM
- TGI (MDA-MB-435): 3.83 µM
- GI50 (HCC-2998 colon): 0.7 µM
- TGI (HCC-2998 colon): 2.02 µM

SMILES: Cn1cc(C2=C(c3c[nH]c4ccccc34)C(=O)NC2=O)c2ccccc21
- GI50 (SK-OV-3 ovarian): 1.08 µM
- TGI (SK-OV-3 ovarian): > 25 µM
- GI50 (LOX IMVI melanoma): 1.3 µM
- TGI (LOX IMVI melanoma): > 25 µM
- GI50 (NCI-H522 lung): 2.11 µM
- TGI (NCI-H522 lung): > 25 µM
- GI50 (PC-3 prostate): 3.91 µM
- TGI (PC-3 prostate): > 25 µM
- GI50 (CCRF-CEM leukemia): 0.264 µM
- GI50 (K-562 leukemia): 0.704 µM
- TGI (K-562 leukemia): > 25 µM
- GI50 (SNB-19 CNS): 3.31 µM
- TGI (SNB-19 CNS): > 25 µM
- GI50 (HT29 colon): 0.968 µM
- TGI (HT29 colon): > 25 µM
- GI50 (MDA-MB-435): 0.937 µM
- TGI (MDA-MB-435): > 25 µM
- GI50 (HCC-2998 colon): 6.66 µM
- TGI (HCC-2998 colon): > 25 µM

SMILES: O=C(NCCCc1cn[nH]c1)c1ccc(-c2ccncc2)c(C#Cc2ccc(F)cc2)c1
- GI50 (SK-OV-3 ovarian): 8.96 µM
- TGI (SK-OV-3 ovarian): > 100 µM
- GI50 (LOX IMVI melanoma): 0.913 µM
- TGI (LOX IMVI melanoma): 53.6 µM
- GI50 (NCI-H522 lung): < 0.0406 µM
- TGI (NCI-H522 lung): 53.2 µM
- GI50 (PC-3 prostate): < 0.01 µM
- TGI (PC-3 prostate): 76.8 µM
- GI50 (CCRF-CEM leukemia): < 0.01 µM
- TGI (CCRF-CEM leukemia): > 100 µM
- GI50 (K-562 leukemia): < 0.01 µM
- TGI (K-562 leukemia): > 100 µM
- GI50 (SNB-19 CNS): 0.229 µM
- TGI (SNB-19 CNS): > 100 µM
- GI50 (HT29 colon): < 0.01 µM
- TGI (HT29 colon): 36.7 µM
- GI50 (MDA-MB-435): < 0.01 µM
- TGI (MDA-MB-435): > 87.8 µM
- TGI (HCC-2998 colon): 26.1 µM

SMILES: Cc1ccc([N+](=O)[O-])c2c(NCCNC(=O)c3cc(C(=O)NCCNc4ccnc5c(C)ccc([N+](=O)[O-])c45)n(C)n3)ccnc12
- TGI (SK-OV-3 ovarian): > 100 µM
- TGI (LOX IMVI melanoma): > 64.7 µM
- TGI (NCI-H522 lung): > 100 µM
- TGI (PC-3 prostate): > 100 µM
- TGI (CCRF-CEM leukemia): > 46.4 µM
- TGI (K-562 leukemia): > 76.4 µM
- TGI (SNB-19 CNS): > 100 µM
- TGI (HT29 colon): > 100 µM
- TGI (MDA-MB-435): > 56.1 µM
- TGI (HCC-2998 colon): > 100 µM

SMILES: CCCOC(=O)c1c(C)n(C)c2scc[n+]12
- GI50 (SK-OV-3 ovarian): 49.6 µM
- TGI (SK-OV-3 ovarian): > 100 µM
- GI50 (LOX IMVI melanoma): 89.7 µM
- TGI (LOX IMVI melanoma): > 100 µM
- GI50 (NCI-H522 lung): 31.4 µM
- TGI (NCI-H522 lung): > 100 µM
- GI50 (PC-3 prostate): 54.1 µM
- TGI (PC-3 prostate): > 100 µM
- GI50 (CCRF-CEM leukemia): 53.5 µM
- TGI (CCRF-CEM leukemia): > 100 µM
- GI50 (K-562 leukemia): 21 µM
- TGI (K-562 leukemia): > 100 µM
- GI50 (SNB-19 CNS): 36.3 µM
- TGI (SNB-19 CNS): > 100 µM
- GI50 (HT29 colon): 32.8 µM
- TGI (HT29 colon): > 100 µM
- GI50 (MDA-MB-435): > 100 µM
- TGI (MDA-MB-435): > 100 µM
- GI50 (HCC-2998 colon): 55.9 µM
- TGI (HCC-2998 colon): > 100 µM
